What all share (format): biochemical
One assay relates to FXIIIa. In words: Initial cleavage tests of Glu(pNA)/Glu(AMC) derivatives with FXIIIa (background section). The following applies: release of pNA or AMC; no conditions given. From the text: Nach derzeitigem Wissen existieren neben FXIII bzw. FXllla im Körper derzeit noch 8 weitere Transglutaminasen, dazu zählen TG1-TG7 sowie das Protein epb42, dass allerdings katalytisch unwirksam ist (Wodzinska, Mini Rev. in Med. Chem. 5 (2005) 279-292). Als erste Transglutaminase wurde das inzwischen als TG2 bezeichnete Enzym entdeckt. Dessen Aktivität lässt sich sehr einfach durch UV/VIS-spektroskopische oder fluorimetrische Messungen unter Verwendung simpler Aminosäurederiate nachweisen, beispielsweise durch Abspaltung von p-Nitroanlin aus H-Glu(pNA)-OH oder durch Abspaltung von Aminomethylcoumarin aus H-Glu(AMC)-OH (Smith et al., Anal. Biochem. 100 (1979) 136-139). […] Bisher wurden auch noch keine Peptidderivate beschrieben, die einen Glu(pNA) oder Glu(AMC)-Rest besitzen und gleichzeitig mit ausreichender Effektivität von FXllla unter Freisetzung von pNA oder AMC umgesetzt werden.

Assay [1] concerns the target T1, Faktor XIIIa (Homo sapiens, UniProt P00488).
T1 construct: Aktivierung des Zymogens FXIII zu Faktor XIIIa; purchased Aventis Behring Fibrogammin HS
T1 sequence (P00488 39-732 limits assumed): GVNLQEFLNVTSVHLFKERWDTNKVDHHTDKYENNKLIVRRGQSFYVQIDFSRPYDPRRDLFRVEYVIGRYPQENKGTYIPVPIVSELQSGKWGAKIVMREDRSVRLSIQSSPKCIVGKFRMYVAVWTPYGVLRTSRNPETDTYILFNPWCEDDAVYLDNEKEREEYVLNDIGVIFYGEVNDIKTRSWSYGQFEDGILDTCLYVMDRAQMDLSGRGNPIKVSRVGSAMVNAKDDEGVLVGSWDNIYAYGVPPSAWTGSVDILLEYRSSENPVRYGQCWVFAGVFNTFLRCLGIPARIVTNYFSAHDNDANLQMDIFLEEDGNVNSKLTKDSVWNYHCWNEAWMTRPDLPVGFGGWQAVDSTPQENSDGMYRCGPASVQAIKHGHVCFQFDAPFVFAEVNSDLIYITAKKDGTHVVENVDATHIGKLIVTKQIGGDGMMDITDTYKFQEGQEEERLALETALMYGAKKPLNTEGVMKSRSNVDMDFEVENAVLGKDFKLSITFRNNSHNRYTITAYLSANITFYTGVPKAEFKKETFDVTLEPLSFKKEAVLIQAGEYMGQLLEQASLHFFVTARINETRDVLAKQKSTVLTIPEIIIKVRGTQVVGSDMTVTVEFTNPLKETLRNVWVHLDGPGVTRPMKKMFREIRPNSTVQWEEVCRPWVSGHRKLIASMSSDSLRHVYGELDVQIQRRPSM
Put plainly: Cleavage of pNA substrates by activated factor XIIIa, absorbance at 405 nm (Michaelis-Menten kinetics and pre-test). The conditions noted are these: for Vmax: change of absorbance at 405 nm per s, enzyme ca. 1,25 Einheiten/ml; for Vmax / Substratspaltung (Vortest): 37 °C; for Substratspaltung (Vortest): pre-test at constant substrate concentration, 405 nm. How it is done: 250 Einheiten lyophilisiertes Fibrogammin HS (Aventis Behring) wurden in 4 ml Wasser gelöst, als 100 µl Portionen aliquotiert und bei -80 °C gelagert. 100 µl dieser Lösung enthalten 6,25 Einheiten FXIII.
100 µl des aliqotierten Fibrogammins (entspricht 6,25 Einheiten) wurden mit 500 µl TBS-Puffer (50 mM Tris-HCl, pH 7,5 in 0,9% (w/v) NaCl), 360 µl einer 0.9 % NaCl-Lösung, 10 µl einer 1 M CaCl2-Lösung und 20 µl einer Thrombinlösung (Rinderthrombin: 14,2 U in 20 µl) versetzt. Der Ansatz wurde 20 min bei 37 °C inkubiert, danach wurden 10 µl einer Lösung mit rekombinantem Hirudin zugesetzt (r-Hirudin: HBW 023 mit 13442 IU mg^-1, Stammlösung des r-Hirudin = 1 mg/ml). Dieser Aktivierungsansatz besitzt ein Gesamtvolumen von 1 ml, der aktivierte Faktor Xllla wurde bei 37 °C aufbewahrt und für die folgenden kinetischen Messungen verwendet.
Die Messungen wurden bei 405 nm und 37 °C mit einem Microplate Reader der Firma Labsystems (iEMS Reader MF) mit folgendem Messansatz durchgeführt: • 150 µl TBS-Puffer (siehe oben, der Puffer kann gegebenenfalls auch eine Aminkomponente enthalten, beispielsweise H-Gly-Ethylester oder H-Gly-Gly-Ethylester oder ein anderes Amin, falls vorhanden ist die finale Konzentration des Amins im Messansatz 2,5 mM oder höher) • 50 µl Substratlösung • 50 µl Enzymlösung (im Messansatz ca. 1,25 Einheiten/ml)
Sämtliche Lösungen wurden vor Benutzung bei 37 °C aufbewahrt, vor Zugabe der FXllla-Lösung wurde die Mikroreadermessplatte nochmals 5 min bei 37 °C im Messgerät temperiert. Nach Zugabe der FXllla-Lösung wurde die Substratspaltung gestartet und die Änderung der Absorption bei 405 nm gemessen. Für einen Vortest wurde eine konstante Substratkonzentration verwendet. […] Wir haben vermutet, dass vor allem die Aminosäuren N- und C-terminal des Glu(pNA)-Restes wichtig für die Substraterkennung sind, deshalb wurde das N-terminale Glycin und das an dritter Position befindliche Serin innerhalb der Berichromsequenz durch andere Aminosäurereste ersetzt. Durch den Vortest wurde festgestellt, dass einige dieser Substrate deutlich schneller als die Derivate S1 und S2 gespalten werden. Für ausgewählte Substrate wurden die Substratkonzentrationen im Messansatz variiert und die bestimmten Umsatzgeschwindigkeiten als Funktion der Substratkonzentration entsprechend der Michaelis-Menten-Gleichung v=Vmax·[S]/(Km+[S]) aufgetragen und somit die kinetischen Konstanten Km und Vmax bestimmt, wobei Vmax in der Einheit Absorptionsänderung bei 405 nm/s erhalten wurde. Dies ist in Fig. 1 und Fig. 2 gezeigt.

The target in the next assay is T2, FXllla (Homo sapiens, UniProt P00488).
T2 sequence (P00488 39-732 limits assumed): T1 sequence (P00488 39-732 limits assumed)
Put plainly: Initial experiments: cleavage by FXIIIa of Glu(pNA) peptides derived from the Berichrom substrate sequence.

Assay [2] deals with T1, Faktor XIIIa. Put plainly: Cleavage of AMC substrates by activated factor XIIIa, fluorescence plate reader (Michaelis-Menten kinetics). The following applies: λEX = 380 nm, λEm = 460 nm, room temperature, enzyme ca. 0,893 Einheiten/ml. How it is done: Die Aliquotierung des Zymogens Faktor XIII und Aktivierung des Zymogens FXIII zu Faktor XIIIa erfolgten analog der in Beispiel 3 beschriebenen Prozedur.
Sämtliche Lösungen wurden bei Raumtemperatur aufbewahrt. Die Bestimmung der Spaltung der AMC-Substrate durch FXllla wurde mit einem Fluoreszenz-Plattenreader Safire^2 der Firma Tecan (λEX = 380 nm, λEm = 460 nm) bei Raumtemperatur durchgeführt. • 100 µl TBS-Puffer (siehe oben, der Puffer kann gegebenenfalls auch eine Aminkomponente enthalten, beispielsweise H-Gly-Ethylester oder H-Gly-Gly-Ethylester oder ein anderes Amin) • 50 µl Substratlösung • 25 µl Enzymlösung (im Messansatz ca. 0,893 Einheiten/ml)
Die Michaelis-Menten-Auftragung für die AMC-enthaltenden Substrate ist in Fig. 3 gezeigt.

Structures are written as SMILES. Peptide text beside a SMILES is read from it. * marks the point of attachment. pNA = O=[N+]([O-])c1ccc(N*)cc1; Cbz = O=C(OCc1ccccc1)*

For the compound `Cc1cc(=O)oc2cc(NC(=O)CC[C@H](N)C(=O)O)ccc12` [H-Glu(AMC)-OH], the “Spaltung durch FXIIIa” value in the assay with FXIIIa is reported as “nicht gespalten”.

Regarding `CC[C@H](C)[C@H](NC(=O)[C@@H](NC(=O)[C@H](CCCCN)NC(=O)[C@@H](NC(=O)[C@H](CCC(=O)Nc1ccc([N+](=O)[O-])cc1)NC(=O)[C@@H](N)Cc1ccc(O)cc1)C(C)C)C(C)C)C(N)=O` [Substrat S12, H-Tyr-Glu(pNA)-Val-Lys-Val-Ile-NH2] (H-YE(pNA)VKVI-NH2), the Vmax at Faktor XIIIa [1] (pNA substrates) is reported as 1.33 × 10^-4 dOD/s.

For `CC[C@H](C)[C@H](NC(=O)[C@@H](NC(=O)[C@H](CCCCN)NC(=O)[C@H](CO)NC(=O)[C@@H](N)CCC(=O)Nc1ccc([N+](=O)[O-])cc1)C(C)C)C(=O)NCC(N)=O` [H-Glu(pNA)-Ser-Lys-Val-Ile-Gly-NH2] (H-E(pNA)SKVIG-NH2), the “Spaltung durch FXllla” value on FXllla is reported as “fast gar nicht oder nur sehr langsam gepalten”.

For `N[C@@H](CCC(=O)Nc1ccc([N+](=O)[O-])cc1)C(=O)O` [H-Glu(pNA)-OH], in the assay with FXIIIa, the “Spaltung durch FXIIIa” value was “nicht gespalten”.

As for `CC(C)C[C@H](NC(=O)[C@@H]1CCCN1C(=O)[C@H](CO)NC(=O)[C@@H](NC(=O)[C@H](CC(N)=O)NC(=O)[C@H](CCC(=O)O)NC(=O)[C@H](CCC(=O)Nc1ccc([N+](=O)[O-])cc1)NC(=O)[C@@H](N)CC(N)=O)C(C)C)C(N)=O` [Substrat S1, H-Asn-Glu(pNA)-Glu-Asn-Val-Ser-Pro-Leu-NH2] (H-NE(pNA)ENVSPL-NH2), the “Substratspaltung (Vortest)” value on Faktor XIIIa [1] is given as “praktisch kaum gespalten”.

Take `CC[C@H](C)[C@H](NC(=O)[C@@H](NC(=O)[C@H](CCCNC(=N)N)NC(=O)[C@@H](NC(=O)[C@H](CCC(=O)Nc1ccc([N+](=O)[O-])cc1)NC(=O)[C@@H](N)Cc1ccc(O)cc1)C(C)C)C(C)C)C(=O)NCC(N)=O` [Substrat S16, H-Tyr-Glu(pNA)-Val-Arg-Val-Ile-Gly-NH2] (H-YE(pNA)VRVIG-NH2): the “Eignung als Substrat” value on Faktor XIIIa [1] (pNA substrates, see Fig. 2) is “geeignete Substrate”. For the same compound, the Vmax at Faktor XIIIa [1] (pNA substrates) is recorded as 0,8 × 10^-4 dOD/s.

`CC[C@H](C)[C@H](NC(=O)[C@@H](NC(=O)[C@H](CCCCN)NC(=O)[C@H](CO)NC(=O)[C@H](CCC(=O)Nc1ccc([N+](=O)[O-])cc1)NC(=O)CNC(=O)[C@@H]1CCCN1)C(C)C)C(=O)NCC(N)=O` [H-Pro-Gly-Glu(pNA)-Ser-Lys-Val-Ile-Gly-NH2] (H-PGE(pNA)SKVIG-NH2): the “Spaltung durch FXllla” value on FXllla was “fast gar nicht oder nur sehr langsam gepalten”.

Regarding `CC[C@H](C)[C@H](NC(=O)[C@@H](NC(=O)[C@H](CCCCN)NC(=O)[C@@H](NC(=O)[C@H](CCC(=O)Nc1ccc([N+](=O)[O-])cc1)NC(=O)[C@@H](N)Cc1ccc(O)cc1)C(C)C)C(C)C)C(=O)NCC(N)=O` [Substrat S10, H-Tyr-Glu(pNA)-Val-Lys-Val-Ile-Gly-NH2] (H-YE(pNA)VKVIG-NH2), the Vmax on Faktor XIIIa [1] (pNA substrates) is listed as 0,95 × 10^-4 dOD/s.

As to `CC[C@H](C)[C@H](NC(=O)[C@@H](NC(=O)[C@H](CCCCN)NC(=O)[C@H](CO)NC(=O)[C@H](CCC(=O)Nc1ccc([N+](=O)[O-])cc1)NC(=O)CNC(=O)[C@@H]1CCCN1C(=O)CNC(=O)[C@@H](N)CC(C)C)C(C)C)C(=O)NCC(N)=O` [H-Leu-Gly-Pro-Gly-Glu(pNA)-Ser-Lys-Val-Ile-Gly-NH2] (H-LGPGE(pNA)SKVIG-NH2), the “Spaltung durch FXllla” value on FXllla is listed as “nur sehr langsam von FXllla gepalten”.

Turning to `CC[C@H](C)[C@H](NC(=O)[C@@H](NC(=O)[C@H](CCCCN)NC(=O)[C@H](CO)NC(=O)[C@H](CCC(=O)Nc1ccc([N+](=O)[O-])cc1)NC(=O)CNC(=O)[C@@H]1CCCN1C(=O)CN)C(C)C)C(=O)NCC(N)=O` [H-Gly-Pro-Gly-Glu(pNA)-Ser-Lys-Val-Ile-Gly-NH2] (H-GPGE(pNA)SKVIG-NH2), at FXllla, the “Spaltung durch FXllla” value is on record as “fast gar nicht oder nur sehr langsam gepalten”.

On to `CC[C@H](C)[C@H](NC(=O)[C@@H](NC(=O)[C@H](CCCCN)NC(=O)[C@H](CCCCNC(=O)OCc1ccccc1)NC(=O)[C@H](CCC(=O)Nc1ccc([N+](=O)[O-])cc1)NC(=O)[C@@H](N)Cc1c[nH]cn1)C(C)C)C(=O)NCC(N)=O` [Substrat S19, H-His-Glu(pNA)-Lys(Z)-Lys-Val-Ile-Gly-NH2] (H-HE(pNA)K(Cbz)KVIG-NH2), for which, at Faktor XIIIa [2], the Vmax is listed as 11,99 dRFU/s.

Consider `CC[C@H](C)[C@H](NC(=O)[C@@H](NC(=O)[C@H](CCCCN)NC(=O)[C@H](CO)NC(=O)[C@H](CCC(=O)Nc1ccc([N+](=O)[O-])cc1)NC(=O)CN)C(C)C)C(=O)NCC(N)=O` [Substrat S2, H-Gly-Glu(pNA)-Ser-Lys-Val-Ile-Gly-NH2] (H-GE(pNA)SKVIG-NH2), for which the “Substratspaltung (Vortest)” value at Faktor XIIIa [1] is on record as “nur langsam umgesetzt”.

Take `CC[C@H](C)[C@H](NC(=O)[C@@H](NC(=O)[C@H](CCCCN)NC(=O)[C@@H](NC(=O)[C@H](CCC(=O)Nc1ccc([N+](=O)[O-])cc1)NC(=O)[C@@H](N)CCCCN)C(C)C)C(C)C)C(=O)NCC(N)=O` [Substrat S18, H-Lys-Glu(pNA)-Val-Lys-Val-Ile-Gly-NH2] (H-KE(pNA)VKVIG-NH2): the Vmax on Faktor XIIIa [2] is 9,61 dRFU/s.

On to `CC[C@H](C)[C@H](NC(=O)[C@@H](NC(=O)[C@H](CCCCN)NC(=O)[C@H](CO)NC(=O)[C@H](CCC(=O)Nc1ccc([N+](=O)[O-])cc1)NC(C)=O)C(C)C)C(=O)NCC(N)=O` [Ac-Glu(pNA)-Ser-Lys-Val-Ile-Gly-NH2] (Ac-E(pNA)SKVIG-NH2), for which the “Spaltung durch FXllla” value on FXllla was “fast gar nicht oder nur sehr langsam gepalten”.

The record behind these values is patent publication EP2348038A1, “Method for determining the activity of transglutaminase factor XIIIa” (PHILIPPS-UNIVERSITÄT MARBURG, priority 2010, dated 2011).
